Reference: US11649261B2, “Crystalline forms of a CD73 inhibitor and uses thereof” (ARCUS BIOSCIENCES, INC., priority 2020, dated 2023)
“Also recorded” adds a separate entry of the source. Like-named read-outs stand apart in the source and are kept apart here.

Key:
Format in all cases: physicochemical
[1] = Competitive slurry conversion testing of Forms I, II and V in EtOH/EtOAc at 20° C.
Description: The relative form stability between Forms I, II and V was investigated by aging mixtures of the mixed forms in EtOH, EtOAc, and mixtures thereof. The Form V starting material contained some Form II as determined by its XRPD pattern.
In two 4 mL vials, enough Form I and Form V (containing some Form II) were mixed with 1 mL of the appropriate solvent to generate a slurry in each vial. The two slurries were combined and shaken at 600 rpm at 20° C. The solids from the slurries were isolated for XRPD characterization at time 0, 1 day and 2 days (FIG. 12A-D).

[2] = Form V / Form II interconversion on storage, drying and reslurry
Description: Increasing the temperature to 40° C. and drying Form V under vacuum increased the conversion rate to Form II (full conversion observed after 48 hr).

[3] = Equilibrium solubility of Form I and Form II + V in EtOH/EtOAc, with XRPD of the end solids; conditions: for Solubility (wt %) / solubility: overnight; for End Form by XRPD: slurry 20° C. overnight
Description: Equilibrium solubilities of Form I and Form V were measured in EtOH/EtOAc at different ratios at 20° C. The Form V starting material contains some Form II as determined by XRPD.
In a 4 mL vial, 50 mg of the appropriate solid was mixed with 1 mL of each solvent. The resulting slurry was shaken at 600 rpm at 20° C. overnight. The supernatant from each vial was sampled for HPLC for equilibrium solubility, and the solids isolated and characterized by XRPD.

[4] = Competitive slurry of crystalline forms in a 1:2 mixture of EtOH(anhydrous):EtOAc; conditions: 1:2 EtOH (anhydrous):EtOAc
Description: A flask was charged with crystalline Form A (1.5 g) and crystalline Form I (1.5 g) with 30 mL of a 1:2 mixture of ethanol (anhydrous) and ethyl acetate. The resulting mixture was allowed to stir at room temperature for 5 hours resulting in a thick white slurry. An additional 6 mL of the 1:2 EtOH (anhydrous):EtOAc mixture was added. The suspension was allowed to stir for 5 days. A small sample of the suspension was pulled from the mixture after 22 hr, 46 hr and 118 hr. The samples were filtered, and dried in an oven at room temperature for 2-3 hr and characterized by XRPD.
A 20 mL vial was charged with 0.2 g of Form V and 0.2 g of Form I with 4 mL of a 1:2 EtOH (anhydrous):EtOAc mixture. The resulting suspension was stirred vigorously for 3 days. The suspension was filtered, and the solid was dried under reduced pressure at RT for 3 hr.
A 15 mL round bottom flask was equipped with a stir bar, thermometer and N2 inlet, and was charged with 0.25 g Form I and 0.25 g Form V. To the flask was added 6 mL of a 1:2 EtOH (anhydrous):EtOAc mixture was added to the flask resulting in a white suspension. The suspension was heated to 35° C. and stirred vigorously for 2 days. The suspension was filtered, and the resulting solid dried under reduced pressure at RT for 3 hr.
A 20 mL vial was charged with 0.2 g Form I and 0.2 g Form II. […]

[5] = Equilibrium solubility of Forms I, II and V in EtOH/Heptane; conditions: EtOH/HPT, all solvent ratios, 20 and 35° C.
Description: Equilibrium solubilities of Forms I, II and V were measured in EtOH/Heptane (HPT) solutions of different ratios at 20 and 35° C.
In 4 mL test vial, the appropriate solids (Form I or Form II containing Form V) were mixed with ˜1 mL of each solvent to generate slurry. The resulting slurry was shaken at 600 rpm at 20 and 35° C. overnight. After overnight aging, supernatant from each vial was sampled for HPLC for equilibrium solubility, solids were isolated to check by XRPD.

[6] = Dynamic vapor sorption (DVS); conditions: for Form of post-DVS sample by XRPD: after DVS at 25° C.
Description: Approximately 10 mg of sample was placed into a mesh vapor sorption balance pan and loaded into a DVS-1, DVS Intrinsic or DVS Advantage dynamic vapor sorption balance by Surface Measurement Systems. The sample was subjected to a ramping profile from 40-90% relative humidity (RH) at 10% increments, maintaining the sample at each step until a stable weight had been achieved (dm/dt 0.004%, minimum step length 30 min, maximum step length 500 min) at 25° C. After completion of the sorption cycle, the sample was dried using the same procedure to 0% RH and then a second sorption cycle back to 90% RH. Two cycles were performed. The weight change during the sorption/desorption cycles were plotted, allowing for the hygroscopic nature of the sample to be determined. XRPD analysis was then carried out on any solid retained.
Form I and II were analyzed by dynamic vapor sorption (DVS) at 25° C. (FIG. 16 and FIG. 17).

[7] = ≤20 v % EtOH system, aging for two days
[8] = 100 V % EtOH in EtOH/EtOAc, 20° C.

With `C[C@H](Nc1cc(Cl)nc2c1cnn2[C@@H]1O[C@H](COP(=O)(O)CP(=O)(O)O)[C@@H](O)[C@H]1O)c1ccccc1F` [Form V, (((((2R,3S,4R,5R)-5-(6-chloro-4-(((S)-1-(2-fluorophenyl)ethyl)amino)-1H-pyrazolo[3,4-b]pyridin-1-yl)-3,4-dihydroxytetrahydrofuran-2-yl)methoxy)(hydroxy)phosphoryl)methyl)phosphonic acid] the “Form conversion in competitive slurry” value ([1]; 50~33 v % EtOH solvents) was “converted to Form I”, the “Form conversion in competitive slurry” value ([1]; solvents with ≥80 v % EtOH) was “converted to Form II” and the “Form conversion in competitive slurry” value [1, 7] was “remained”. The “Time for full conversion to Form II” value ([2]; 40° C., drying under vacuum) was 48 h and the “Time for full conversion to Form II” value ([2]; stored at ambient temperature under an N2 blanket) was greater than 48 h.

For `C[C@H](Nc1cc(Cl)nc2c1cnn2[C@@H]1O[C@H](COP(=O)(O)CP(=O)(O)O)[C@@H](O)[C@H]1O)c1ccccc1F` [Form I, (((((2R,3S,4R,5R)-5-(6-chloro-4-(((S)-1-(2-fluorophenyl)ethyl)amino)-1H-pyrazolo[3,4-b]pyridin-1-yl)-3,4-dihydroxytetrahydrofuran-2-yl)methoxy)(hydroxy)phosphoryl)methyl)phosphonic acid], the “Solubility (wt %)” value ([3]; 0 V % EtOH in EtOH/EtOAc, 20° C.) was 0.0% wt %, the “End Form by XRPD” value ([3]; 0 V % EtOH in EtOH/EtOAc) was “Form I” and the “Solubility (wt %)” value ([3]; 20 V % EtOH in EtOH/EtOAc, 20° C.) was 0.1% wt %. For the same molecule, the “End Form by XRPD” value ([3]; 20 V % EtOH in EtOH/EtOAc) was “Form I”, the “Solubility (wt %)” value ([3]; 33 V % EtOH in EtOH/EtOAc, 20° C.) was 1.0% wt % and the “End Form by XRPD” value ([3]; 33 V % EtOH in EtOH/EtOAc) was “Form I”. For the same molecule, the “Solubility (wt %)” value ([3]; 50 V % EtOH in EtOH/EtOAc, 20° C.) was 1.7% wt %, the “End Form by XRPD” value ([3]; 50 V % EtOH in EtOH/EtOAc) was “Form I” and the “Solubility (wt %)” value ([3]; 67 V % EtOH in EtOH/EtOAc, 20° C.) was 3.0% wt %. For the same molecule, the “End Form by XRPD” value ([3]; 67 V % EtOH in EtOH/EtOAc) was “Form I”, the “Solubility (wt %)” value ([3]; 80 V % EtOH in EtOH/EtOAc, 20° C.) was 4.2% wt % and the “End Form by XRPD” value ([3]; 80 V % EtOH in EtOH/EtOAc) was “Form I”. The “Solubility (wt %)” value [3, 8] was 6.4% wt %, the “solubility” value [3, 8] was 46.54 mg/mL and the “End Form by XRPD” value ([3]; 100 V % EtOH in EtOH/EtOAc) was “Form I”. The Relative form stability ([3]; EtOAc rich solvent system except for too high EtOAc (with too low solubility)) was “more stable than Forms II and V”, the solubility ([3]; EtOH/EtOAc solvent mixture, 20 °C, organic solvent or mixture, thermodynamic from solid, 20 V % EtOH in EtOH/EtOAc, 20° C., read-out: Solubility) was 1.01 mg/mL and the solubility ([3]; EtOH/EtOAc solvent mixture, 20 °C, organic solvent or mixture, thermodynamic from solid, 33 V % EtOH in EtOH/EtOAc, 20° C., read-out: Solubility) was 8.93 mg/mL. It also gave a solubility ([3]; EtOH/EtOAc solvent mixture, 20 °C, organic solvent or mixture, thermodynamic from solid, 50 V % EtOH in EtOH/EtOAc, 20° C., read-out: Solubility) of 13.7 mg/mL, a solubility ([3]; EtOH/EtOAc solvent mixture, 20 °C, organic solvent or mixture, thermodynamic from solid, 67 V % EtOH in EtOH/EtOAc, 20° C., read-out: Solubility) of 23.7 mg/mL and a solubility ([3]; EtOH/EtOAc solvent mixture, 20 °C, organic solvent or mixture, thermodynamic from solid, 80 V % EtOH in EtOH/EtOAc, 20° C., read-out: Solubility) of 32.8 mg/mL. For the same molecule, the solubility ([3]; EtOH/EtOAc solvent mixture, 20 °C, organic solvent or mixture, thermodynamic from solid, 100 V % EtOH in EtOH/EtOAc, 20° C., read-out: Solubility) was roughly 46 mg/mL, the “Crystal form change in solubility vials” value ([3]; EtOH/EtOAc, all ratios, 20° C.) was “No crystal form change” and the Relative form stability ([4]; 35° C., 2 days) was “more stable than Form V; also recorded: more stable than Form II”. The Relative form stability ([4]; RT) was “more stable than Form A; also recorded: more stable than Form V; also recorded: more stable than Form II”, the “Form conversion in competitive slurry” value ([1]; solvents with ≥80 v % EtOH) was “converted to Form II” and the “Form conversion in competitive slurry” value [1, 7] was “remained”. The “Solubility compared between forms” value [5] was “higher than the solubility of Form II/V mixtures” and the “Form of post-DVS sample by XRPD” value [6] was “conversion to Form VI”.

For `C[C@H](Nc1cc(Cl)nc2c1cnn2[C@@H]1O[C@H](COP(=O)(O)CP(=O)(O)O)[C@@H](O)[C@H]1O)c1ccccc1F` [Form II, (((((2R,3S,4R,5R)-5-(6-chloro-4-(((S)-1-(2-fluorophenyl)ethyl)amino)-1H-pyrazolo[3,4-b]pyridin-1-yl)-3,4-dihydroxytetrahydrofuran-2-yl)methoxy)(hydroxy)phosphoryl)methyl)phosphonic acid], the Relative form stability ([3]; EtOH rich or EtOAc lean solvent systems) was “more stable than Forms I and V”, the “Form of post-DVS sample by XRPD” value [6] was “conversion to Form VI” and the “Water uptake compared with Form I” value ([6]; from 40% to 70% relative humidity (RH), 25° C.) was “much less water uptake”. For the same molecule, the “Form recovered after resuspending” value ([2]; 1:1 EtOH:EtOAc mixture overnight with stirring) was “recovery of Form V”.
